Measured values published in ChEMBL document CHEMBL2429713, “Toward drugs for protease-activated receptor 2 (PAR2)” (J Med Chem, 2013).
One block for each molecule: values may come before it. *1 amine or outer side, *2 acyl side, *3 side chain or, on linkers, in order; H or OH if unused. Where a SMILES comes first, the peptide text is derived from it. [ ]: non-standard residue; d: D form. The star is where a group is joined. X1 = CCCCCCCCCCCCCCCC(=O)OCCOCCOCCNCCC[C@H](N[*:1])C(=O)[*:2]; Phe(4-NO2) = N[C@@H](Cc1ccc([N+](=O)[O-])cc1)C(=O)O; 4Thiazolecarbonyl(2-NH2) = Nc1nc(C(=O)*)cs1; Palmitoyl = CCCCCCCCCCCCCCCC(=O)*; Orn = NCCC[C@H](N)C(=O)O; 2Furoyl = O=C(c1ccco1)*

Tests used:
[1] = molecular target: T1, Proteinase-activated receptor 2 (Homo sapiens, UniProt P55085); experiment: Antagonist activity at PAR2 in human HT-29 cells assessed as inhibition of agonist-induced calcium mobilization; type: functional, cell-based
T1 sequence (P55085 whole entry): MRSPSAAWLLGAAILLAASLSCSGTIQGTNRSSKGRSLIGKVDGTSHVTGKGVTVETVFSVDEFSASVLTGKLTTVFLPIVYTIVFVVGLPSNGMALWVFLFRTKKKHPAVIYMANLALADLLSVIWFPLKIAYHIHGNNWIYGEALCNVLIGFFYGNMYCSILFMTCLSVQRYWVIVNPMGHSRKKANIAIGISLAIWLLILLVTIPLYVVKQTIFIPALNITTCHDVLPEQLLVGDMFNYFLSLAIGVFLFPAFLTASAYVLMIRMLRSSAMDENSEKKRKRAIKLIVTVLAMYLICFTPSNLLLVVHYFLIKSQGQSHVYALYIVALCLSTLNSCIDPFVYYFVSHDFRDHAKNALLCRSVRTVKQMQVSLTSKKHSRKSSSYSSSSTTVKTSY

[2] = molecular target: T1, Proteinase-activated receptor 2; experiment: Antagonist activity at PAR2 in human HCT15 cells assessed as inhibition of SLIGKV-NH2-induced intracellular calcium release; type: functional, cell-based, HCT-15
[3] = molecular target: T1, Proteinase-activated receptor 2; experiment: Antagonist activity at PAR2 in human HT-29 cells assessed as inhibition of 2f-LIGRLO-NH2-induced intracellular calcium release; type: functional, cell-based
[4] = molecular target: T1, Proteinase-activated receptor 2; experiment: Antagonist activity at PAR2 in human HT-29 cells assessed as inhibition of trypsin-induced intracellular calcium release; type: functional, cell-based
[5] = molecular target: T1, Proteinase-activated receptor 2; experiment: Antagonist activity at human PAR2 expressed in human NCTC-2544 cells assessed as inhibition of SLIGKV-NH2-induced NFkappaB activation preincubated for 15 to 30 mins followed by SLIGKV-NH2 addition measured after 6 hrs by luciferase reporter gene assay; type: cell-based
[6] = molecular target: T1, Proteinase-activated receptor 2; experiment: Displacement of [3H]2-furoyl-LIGRL-NH2 from human PAR2 expressed in human NCTC-2544 cells by scintillation counting analysis; type: cell-based
[7] = molecular target: T1, Proteinase-activated receptor 2; experiment: Agonist activity at human PAR2 expressed in HEK293T cells assessed as increase in intracellular calcium level by bioluminescence assay; type: functional, cell-based, HEK-293T
[8] = molecular target: T1, Proteinase-activated receptor 2; experiment: Agonist activity at human PAR2 expressed in HEK293T cells assessed as stimulation of phosphatidylinositol hydrolysis after 45 mins by scintillation counting analysis; type: functional, cell-based, HEK-293T
[9] = molecular target: T1, Proteinase-activated receptor 2; experiment: Agonist activity at PAR2 in human HT-29 cells assessed as increase in intracellular calcium release; type: functional, cell-based
[10] = molecular target: T1, Proteinase-activated receptor 2; experiment: Displacement of [3H]-2-furoyl-LIGRL-NH2 from human PAR2 expressed in human NCTC-2544 cells after 60 mins by scintillation counting analysis; type: cell-based
[11] = molecular target: T2, Proteinase-activated receptor 2 (Rattus norvegicus, UniProt Q63645); experiment: Antagonist activity at rat PAR2 expressed in rat KNRK cells assessed as inhibition of trypsin-induced receptor activation; type: cell-based
T2 sequence (Q63645 whole entry): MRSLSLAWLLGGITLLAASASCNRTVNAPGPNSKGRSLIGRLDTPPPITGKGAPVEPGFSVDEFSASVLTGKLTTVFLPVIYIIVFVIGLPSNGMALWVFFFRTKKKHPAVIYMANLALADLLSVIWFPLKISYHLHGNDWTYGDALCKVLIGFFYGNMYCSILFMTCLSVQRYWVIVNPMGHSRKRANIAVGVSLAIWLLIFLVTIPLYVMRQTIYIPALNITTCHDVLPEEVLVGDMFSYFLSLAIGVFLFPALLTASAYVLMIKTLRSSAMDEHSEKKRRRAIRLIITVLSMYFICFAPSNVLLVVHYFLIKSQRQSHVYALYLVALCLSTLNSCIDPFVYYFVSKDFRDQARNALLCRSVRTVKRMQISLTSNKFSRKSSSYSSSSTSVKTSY

[12] = molecular target: T1, Proteinase-activated receptor 2; experiment: Antagonist activity at PAR2 in human HaCaT cells assessed as inhibition of SLIGKV-NH2-induced intracellular calcium release; type: functional, cell-based
[13] = molecular target: T1, Proteinase-activated receptor 2; experiment: Agonist activity at PAR2 (unknown origin) by cell-based assay
[14] = molecular target: Proteinase-activated receptor 2 (Homo sapiens) (UniProt P55085); experiment: Antagonist activity at PAR2 in human SW620 cells assessed as inhibition of SLIGRL-NH2-induced intracellular calcium release at 6 uM relative to control; type: functional, cell-based; design: scale not given: the % may be the effect or the level left; details: SW-620
[15] = molecular target: T3, Proteinase-activated receptor 1 (Homo sapiens, UniProt P25116); experiment: Agonist activity at human PAR1 expressed in African green monkey COS7 cells assessed as stimulation of inositol triphosphate production; type: functional, cell-based, COS-7
T3 sequence (P25116 whole entry): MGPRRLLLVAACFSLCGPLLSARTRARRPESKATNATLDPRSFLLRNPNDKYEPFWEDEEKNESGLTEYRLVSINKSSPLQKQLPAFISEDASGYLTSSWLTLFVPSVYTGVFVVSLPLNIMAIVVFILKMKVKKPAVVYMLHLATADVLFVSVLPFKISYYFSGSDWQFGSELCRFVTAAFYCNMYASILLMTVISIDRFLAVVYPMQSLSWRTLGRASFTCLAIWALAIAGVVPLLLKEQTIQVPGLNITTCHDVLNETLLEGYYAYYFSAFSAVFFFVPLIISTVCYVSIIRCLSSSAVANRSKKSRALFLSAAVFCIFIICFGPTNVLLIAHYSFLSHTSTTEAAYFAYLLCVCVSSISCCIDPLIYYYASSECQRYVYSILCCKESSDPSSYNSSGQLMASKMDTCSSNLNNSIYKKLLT

[16] = molecular target: T1, Proteinase-activated receptor 2; experiment: Agonist activity at PAR2 in human 16HBE14o- cells assessed as increase in MAPK level; type: cell-based
[17] = molecular target: T1, Proteinase-activated receptor 2; experiment: Agonist activity at PAR2 in human 16HBE14o- cells assessed as increase in intracellular calcium level; type: functional, cell-based
[18] = molecular target: T1, Proteinase-activated receptor 2; experiment: Antagonist activity at human PAR2 expressed in human A549 cells coexpressing TACR1 assessed as inhibition of substance P-induced IL-8 production by ELISA; type: cell-based
[19] = molecular target: T1, Proteinase-activated receptor 2; experiment: Antagonist activity at human PAR2 expressed in human A549 cells assessed as inhibition of 2f-LIGRLO-NH2-induced NFkappaB activation by luciferase reporter gene assay; type: cell-based

IC50 [1]: 2000 nM
Structure (SMILES): CC[C@H](C)[C@H](NC(=O)[C@H](CC1CCCCC1)NC(=O)c1ccno1)C(=O)N1CCC2(CCc3ccccc32)CC1

IC50 [1]: 1000 nM
Structure (SMILES): CC[C@H](C)[C@H](NC(=O)[C@H](CC1CCCCC1)NC(=O)c1ccno1)C(=O)N1CCC2(C=Cc3ccccc32)CC1

IC50 [2]: 34000 nM
Structure (SMILES): COc1ccc(Br)c(C(=O)Nn2c(-c3ccc(F)cc3)nc3ccccc3c2=O)c1

IC50 [2]: 243000 nM
Structure (SMILES): Cc1cccc(Cn2c(C)nc3cc(C(=O)N4CCCCC4)ccc32)c1

IC50 [3]: 400 nM
IC50 [4]: 1900 nM
Structure (SMILES): CC[C@H](C)[C@H](NC(=O)[C@H](CC1CCCCC1)NC(=O)c1ccno1)C(=O)NCc1ccccc1OC

IC50 [5]: 1100 nM
Ki [6]: 600 nM
Structure (SMILES): NCCCC[C@H](NC(=O)CNC(=O)Nc1ccc2c(c1)c(CN1CCCC1)cn2Cc1c(Cl)cccc1Cl)C(=O)N[C@@H](Cc1ccccc1)C(=O)NC(c1ccccc1)c1ccccc1

EC50 [7]: 30 nM
EC50 [8]: 30 nM
Structure (SMILES): C/C(=N\NC(=O)[C@@H]1C(=O)NC[C@H]1c1ccccc1)c1cccc(Br)c1

EC50 [9]: 200 nM
IC50 [10]: 100 nM
Structure (SMILES): CC[C@H](C)[C@H](NC(=O)[C@H](CC(C)C)NC(=O)c1ccco1)C(=O)NCC(=O)N[C@@H](CCCN=C(N)N)C(=O)N[C@@H](CC(C)C)C(=O)N[C@@H](CCCN)C(N)=O (2Furoyl-LIGRL[Orn]-NH2)

EC50 [9]: 200 nM
Structure (SMILES): CC[C@H](C)[C@H](NC(=O)[C@H](Cc1ccc([N+](=O)[O-])cc1)NC(=O)[C@H](CCCN=C(N)N)NC(=O)CNC(=O)[C@@H](NC(=O)[C@H](CC(C)C)NC(=O)c1ccco1)[C@@H](C)CC)C(N)=O (2Furoyl-LIGR[Phe(4-NO2)]I-NH2)

IC50 [11]: 50000 nM
Structure (SMILES): CC(C)C[C@H](NC(=O)[C@H](CC(C)C)NC(=O)[C@H](CO)NC(=O)[C@@H](N)Cc1ccccc1)C(=O)N[C@@H](CCCNC(=N)N)C(=O)N[C@@H](Cc1ccc(O)cc1)C(N)=O (H-FSLLRY-NH2)

IC50 [11]: 50000 nM
Structure (SMILES): CC[C@H](C)[C@H](NC(=O)[C@H](CO)NC(=O)[C@@H](N)CC(C)C)C(=O)NCC(=O)N[C@@H](CCCNC(=N)N)C(=O)N[C@@H](CC(C)C)C(N)=O (H-LSIGRL-NH2)

IC50 [12]: 700000 nM
Structure (SMILES): CC(C)C[C@H](NC(=O)[C@H](CC(C)C)NC(=O)[C@H](CO)NC(=O)[C@H](Cc1ccccc1)NC(=O)[C@H](CCCNC(=N)N)NC(=O)[C@@H](N)CCCNC(=N)N)C(=O)N[C@@H](CCCNC(=N)N)C(=O)N[C@@H](Cc1ccc(O)cc1)C(N)=O (H-RRFSLLRY-NH2)

Structure (SMILES): CC[C@H](C)[C@H](NC(=O)[C@H](CC(C)C)NC(=O)[C@@H](N)CO)C(=O)NCC(=O)N[C@@H](CCCNC(=N)N)C(=O)N[C@@H](CC(C)C)C(N)=O (H-SLIGRL-NH2)
EC50 [13]: 5000 nM

Activity [14]: 53%
Structure (SMILES): CCCCCCCCCCCCCCCC(=O)NCC(=O)N[C@@H](CC(=O)O)C(=O)N[C@@H](CCC(=O)O)C(=O)N[C@@H](CC(N)=O)C(=O)N[C@@H](CO)C(=O)N[C@@H](CCC(=O)O)C(=O)N[C@@H](CCCCN)C(=O)N[C@@H](CCCCN)C(=O)N[C@@H](CCCNC(=N)N)C(=O)N[C@@H](CCCCN)C(=O)N[C@@H](CCC(N)=O)C(=O)N[C@@H](C)C(=O)N[C@H](C(=O)N[C@@H](CCCCN)C(=O)O)[C@@H](C)CC (Palmitoyl-GDENSEKKRKQAIK-OH)

EC50 [15]: 180 nM
Structure (SMILES): CCCCCCCCCCCCCCCC(=O)N[C@@H](CCCN=C(N)N)C(=O)N[C@@H](CS)C(=O)N[C@@H](CC(C)C)C(=O)N[C@@H](CO)C(=O)N[C@@H](CO)C(=O)N[C@@H](CO)C(=O)N[C@@H](C)C(=O)N[C@H](C(=O)N[C@@H](C)C(=O)N[C@@H](CC(N)=O)C(=O)N[C@@H](CCCN=C(N)N)C(=O)N[C@@H](CO)C(=O)N[C@@H](CCCCN)C(=O)N[C@@H](CCCCN)C(=O)N[C@@H](CO)C(=O)N[C@@H](CCCN=C(N)N)C(=O)N[C@@H](CC(C)C)C(=O)N[C@@H](Cc1ccccc1)C(=O)O)C(C)C (Palmitoyl-RCLSSSAVANRSKKSRLF-OH)

EC50 [16]: 10 nM
EC50 [17]: 4 nM
Structure (SMILES): CCCCCCCCCCCCCCCC(=O)OCCOCCOCCNCCC[C@H](NC(=O)[C@H](CC(C)C)NC(=O)[C@H](CCCNC(=N)N)NC(=O)CNC(=O)[C@@H](NC(=O)[C@H](CC(C)C)NC(=O)c1csc(N)n1)[C@@H](C)CC)C(N)=O ({4Thiazolecarbonyl(2-NH2)}-LIGRL[X1]-NH2)

Structure (SMILES): CC(C)[C@]12O[C@H]1[C@@H]1O[C@]13[C@]1(O[C@H]1C[C@H]1C4=C(CC[C@@]13C)C(=O)OC4)[C@@H]2O [TRIPTOLIDE]
IC50 [18]: 23 nM
IC50 [19]: 14 nM
